Test system: PC3 cells
Assay: NAMPT Cell Proliferation Assay
Format: cell-based
Details: Homo sapiens, PC-3, 120 h, 5 days incubation, cell viability by Cell Titer Glo
Procedure, shortened: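 Seeded at 500 cells/well in RPMI with 10% heat-inactivated FBS and left to attach overnight at 37° C, 5% CO2. Compounds were added as 10-fold dilutions […] for 5 days, then viability was read by CellTiter-Glo. IC50s came from sigmoidal fits of percent inhibition.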

Structure (SMILES)	IC50 [nM]
C=CCCC(=O)N1CCC(c2ccc(NC(=O)[C@H]3CCN(c4cccnn4)C3)cc2)CC1 [Example 700, (3S)-N-{4-[1-(pent-4-enoyl)piperidin-4-yl]phenyl}-1-(pyridazin-3-yl)pyrrolidine-3-carboxamide]	8.76
N#Cc1ncccc1N1CC(C(=O)Nc2ccc(C3CCN(C(=O)c4ccccc4)CC3)cc2)C1 [Example 737, N-[4-(1-benzoylpiperidin-4-yl)phenyl]-1-(2-cyanopyridin-3-yl)azetidine-3-carboxamide]	1860
Cc1cccc(C(=O)N2CCC(c3ccc(NC(=O)C4CN(c5cccnn5)C4)cc3)CC2)c1 [Example 341, N-{4-[1-(3-methylbenzoyl)piperidin-4-yl]phenyl}-1-(pyridazin-3-yl)azetidine-3-carboxamide]	1.98
O=C(Nc1ccc(C2CCN(C(=O)c3cccc(OC(F)(F)F)c3)CC2)cc1)C1CN(c2ccnnc2)C1 [Example 562, 1-(pyridazin-4-yl)-N-(4-{1-[3-(trifluoromethoxy)benzoyl]piperidin-4-yl}phenyl)azetidine-3-carboxamide]	9.45
O=C(Nc1ccc(C2CCN(C(=O)Cc3cccc(C(F)(F)F)c3)CC2)cc1)[C@H]1CCN(c2cccnn2)C1 [Example 648, (3S)-1-(pyridazin-3-yl)-N-[4-(1-{[3-(trifluoromethyl)phenyl]acetyl}piperidin-4-yl)phenyl]pyrrolidine-3-carboxamide]	26.8
O=C(Nc1ccc(C2CCN(C(=O)CC3CCCC3)CC2)cc1)C1CN(c2cccnc2)C1 [Example 101, N-{4-[1-(cyclopentylacetyl)piperidin-4-yl]phenyl}-1-(pyridin-3-yl)azetidine-3-carboxamide]	0.31
O=C(Nc1ccc(OC2CCN(C(=O)Cc3cccc(C(F)(F)F)c3)CC2)cc1)C1CN(c2ccnnc2)C1 [Example 305, 1-(pyridazin-4-yl)-N-{4-[(1-{[3-(trifluoromethyl)phenyl]acetyl}piperidin-4-yl)oxy]phenyl}azetidine-3-carboxamide]	102
O=C(Nc1ccc(O[C@@H]2CCN(C(=O)CC(F)(F)F)C2)cc1)C1CN(c2ccnnc2)C1 [Example 479, 1-(pyridazin-4-yl)-N-(4-{[(3R)-1-(3,3,3-trifluoropropanoyl)pyrrolidin-3-yl]oxy}phenyl)azetidine-3-carboxamide]	68.9

Continued by falling IC50, values first:

IC50 [nM]	Structure (SMILES)
7650	CC(C)Cn1cc(-c2ccc(C(=O)N[C@H]3CCN(c4ccnnc4)C3)s2)cn1 [Example 607, 5-[1-(2-methylpropyl)-1H-pyrazol-4-yl]-N-[(3S)-1-(pyridazin-4-yl)pyrrolidin-3-yl]thiophene-2-carboxamide]
712	Cc1ncccc1N1CC(C(=O)Nc2ccc(C3CCN(C(=O)c4ccc(Cl)cc4)CC3)cc2)C1 [Example 156, N-{4-[1-(4-chlorobenzoyl)piperidin-4-yl]phenyl}-1-(2-methylpyridin-3-yl)azetidine-3-carboxamide]
609	CC1(C(=O)N2CCC(c3ccc(C(=O)NC4CN(c5cccnn5)C4)s3)CC2)CC1 [Example 848, 5-{1-[(1-methylcyclopropyl)carbonyl]piperidin-4-yl}-N-[1-(pyridazin-3-yl)azetidin-3-yl]thiophene-2-carboxamide]
70.6	O=C(Nc1ccc(O[C@H]2CCN(C(=O)c3ccccc3)C2)cc1)[C@H]1CCN(c2cccnn2)C1 [Example 824, (3S)—N-(4-{[(3S)-1-benzoylpyrrolidin-3-yl]oxy}phenyl)-1-(pyridazin-3-yl)pyrrolidine-3-carboxamide]
15.5	O=C(Nc1ccc(O[C@@H]2CCN(C(=O)Cc3cccc(C(F)(F)F)c3)C2)cc1)C1CN(c2cccnn2)C1 [Example 512, 1-(pyridazin-3-yl)-N-(4-{[(3R)-1-{[3-(trifluoromethyl)phenyl]acetyl}pyrrolidin-3-yl]oxy}phenyl)azetidine-3-carboxamide]
6.45	O=C(Nc1ccc(C2CCN(C(=O)C3CCC3)CC2)cc1)C1CN(c2cccnn2)C1 [Example 417, N-{4-[1-(cyclobutylcarbonyl)piperidin-4-yl]phenyl}-1-(pyridazin-3-yl)azetidine-3-carboxamide]

Reference: patent US20130303509A1, “NAMPT INHIBITORS” (AbbVie Inc., priority 2012, published 2013)
